Data set [1] deals with T1, Prostaglandin D2 receptor 2 (Homo sapiens, UniProt Q9Y5Y4).
T1 sequence (Q9Y5Y4 whole entry): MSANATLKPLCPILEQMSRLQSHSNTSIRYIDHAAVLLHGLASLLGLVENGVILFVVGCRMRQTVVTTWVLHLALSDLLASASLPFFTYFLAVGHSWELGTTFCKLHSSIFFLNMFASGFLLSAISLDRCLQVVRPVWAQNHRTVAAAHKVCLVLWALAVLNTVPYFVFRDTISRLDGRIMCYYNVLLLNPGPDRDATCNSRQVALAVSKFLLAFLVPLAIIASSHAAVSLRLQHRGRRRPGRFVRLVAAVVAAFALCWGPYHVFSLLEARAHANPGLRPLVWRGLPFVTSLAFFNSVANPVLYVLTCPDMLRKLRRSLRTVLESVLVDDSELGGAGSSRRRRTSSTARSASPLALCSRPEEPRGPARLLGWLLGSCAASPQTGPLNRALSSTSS
Description: Inhibition of CRTH2 in human whole blood

Data set [2] concerns the target T1, Prostaglandin D2 receptor 2. The experiment in a line: Displacement of [3H]PGD2 from human CRTH2 expressed in K562 cells after 60 mins by scintillation counting. The format is cell-based.
For data set [3] the target is unchanged. Kind of data set: Antagonistic activity at CRTH2 in human eosinophils assessed as inhibition of PGD2-induced calcium mobilization after 60 mins by Fluo-3 based fluorescence assay. The data set is classed as functional. Background: A change in cytosolic calcium serves as a functional read-out for many receptors and channels.
Data set [4] has the same target. The source holds these as a separate data set.
Data set [5] has the same target. Kind of data set: Displacement of [3H]PGD2 from human CRTH2 expressed in HEK293 cells after 90 mins by TopCount analysis. The data set is classed as cell-based.
Data set [6] has the same target. The experiment in a line: Displacement of [3H]PGD2 from human CRTH2 expressed in K562 cells after 60 mins by scintillation counting in presence of 4% human serum albumin. The format is cell-based. For orientation: Loss of bound radioactivity is the signal in a displacement assay; it reports binding, not function.
Data set [7] has as its target Sodium-dependent serotonin transporter (Homo sapiens, UniProt P31645). The experiment in a line: Inhibition of SERT.
Data set [8] deals with T1, Prostaglandin D2 receptor 2. Kind of data set: Displacement of [3H]PGD2 from CRTH2 expressed in CHO cells after 1 hr by beta counting analysis. The format is cell-based.
Data set [9] addresses Aldo-keto reductase family 1 member B1 (Rattus norvegicus, UniProt P07943). The experiment in a line: Inhibition of rat aldose reductase.
The nature of data set [10]: Oral bioavailability in rat. As to conditions: in vivo. The data set is classed as ADME, organism-based.
Another data set is described as follows: in vivo. As to conditions: rat.

Chain of Sodium-dependent serotonin transporter (P31645 whole entry): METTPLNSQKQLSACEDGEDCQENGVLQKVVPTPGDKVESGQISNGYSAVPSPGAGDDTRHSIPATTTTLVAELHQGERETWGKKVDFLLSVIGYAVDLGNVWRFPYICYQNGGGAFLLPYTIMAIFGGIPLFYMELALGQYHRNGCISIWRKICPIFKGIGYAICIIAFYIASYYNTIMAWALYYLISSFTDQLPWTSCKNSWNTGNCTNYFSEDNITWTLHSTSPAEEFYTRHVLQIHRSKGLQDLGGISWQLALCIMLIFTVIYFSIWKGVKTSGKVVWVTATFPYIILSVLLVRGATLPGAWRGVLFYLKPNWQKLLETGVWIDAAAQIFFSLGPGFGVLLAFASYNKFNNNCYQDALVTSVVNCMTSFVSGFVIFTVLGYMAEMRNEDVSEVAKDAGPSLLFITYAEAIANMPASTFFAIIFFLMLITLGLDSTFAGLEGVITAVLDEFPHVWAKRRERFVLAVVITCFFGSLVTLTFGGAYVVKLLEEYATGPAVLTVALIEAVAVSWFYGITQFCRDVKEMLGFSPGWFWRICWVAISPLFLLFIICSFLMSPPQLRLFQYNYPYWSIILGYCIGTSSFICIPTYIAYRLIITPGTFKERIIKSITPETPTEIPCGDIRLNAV

`C[C@H]1C[C@@H](N(C(=O)CCC(=O)O)c2ccccc2)c2ccccc2N1C(=O)c1ccccc1` registered an IC50 in [1] of 0.77 nM. Molecule `CCc1nc2c(F)ccc(OCC(=O)O)c2c(OC(F)F)c1Cc1ccc(-n2cccn2)cc1` had a Ki in data set [2] of 5.4 nM. Take `Cc1c(Cc2ccc3ccccc3c2)c2cc(F)ccc2n1CC(=O)O`: the Ki in data set [3] is 15 nM. In [1], this molecule came in with an IC50 of 812 nM.

In data set [1], `Cc1c(Cc2nc3ccccc3s2)c2cc(F)ccc2n1CC(=O)O` showed an IC50 of 343 nM.

Molecule `CCN(Cc1cc(C(F)(F)F)ccc1-c1cc(CC(=O)O)ccc1OC)C(=O)C1CC1` registered an IC50 in data set [1] of 6.5 nM. Moreover, the Ki in data set [4] came to 13.5 nM. In turn, `Cc1c(Sc2ccc(Cl)cc2)c2c(Cl)nccc2n1CC(=O)O` gave a Ki in data set [4] of 58 nM.

`CN(C(=O)C1(C)CCc2c(c3ccccc3n2CC(=O)O)C1)c1cccc(Cl)c1` (stereo unspecified) displayed an IC50 in [5] of 1 nM.

With `O=C(Nc1cccc(-c2ccc(Cl)cc2)n1)c1ccc(Oc2cc3c(cc2Cl)[C@H](C(=O)O)CCO3)cc1`, the IC50 in [6] amounted to 22 nM.

`CCc1c(CC(=O)O)c(C2CC2)nn1Cc1ccc(NC(=O)c2ccc(C(F)(F)F)cc2)cc1`: the Ki in data set [4] turned out to be 0.5 nM. In data set [1], `Cc1c(Cc2ccc(S(C)(=O)=O)cc2)c2cc(F)ccc2n1CC(=O)O` yielded an IC50 of 8 nM.

In the case of `Cc1c(CC(=O)O)c2cc(F)ccc2n1Cc1nc2ccccc2s1`, the Ki in data set [3] was 44 nM. The IC50 in [1] turned out to be 2400 nM. Consider `Cc1c(Sc2ccc(Cl)cc2)c2ncccc2n1CC(=O)O`, for which the Ki in [7] and in data set [8] was 143 nM each time. As to `Cc1c(CC(=O)O)c2cc(F)ccc2n1Cc1ccc2ccccc2c1`, in [3], the Ki is 9 nM. `Cc1c(Cc2ccc3ccccc3n2)c2cc(F)ccc2n1CC(=O)O` [TIMAPIPRANT] registered an IC50 in [9] of 550 nM. In addition, in [10], the bioavailability turned out to be 100%. Moreover, the half-life in the data set “in vivo” was 3.5 h.

Turning to `Cc1c(Sc2ccc(Cl)cc2)c2cc(Cl)ncc2n1CC(=O)O`, the Ki in data set [4] stood at 106 nM. `Cc1ccc2c(c1)c(-c1ccnc3c(C)cccc13)c(C)n2CC(=O)O` registered an IC50 in [7] of 2000 nM.

Regarding `Cc1c(CC(=O)O)c2cc(F)ccc2n1S(=O)(=O)c1ccc(S(C)(=O)=O)cc1`, it took 106 nM to reach half-maximal inhibition in [1] (IC50).

For the molecule `O=C(O)Cc1ccc(Oc2ccc(NC(=O)c3ccc(Cl)c(Cl)c3)cc2)c(CNS(=O)(=O)c2ccc(F)cc2)c1`, in [4], the Ki was less than 1000 nM. In data set [5], `O=C(O)Cn1c2c(c3cc(F)ccc31)C[C@H](NC(=O)CC(c1ccccc1)c1ccccc1)CC2` had an IC50 of 2 nM.

Consider `Cc1cc(CC(=O)O)c2c(C)c(Cc3ccccc3)c(=O)oc2c1`, for which the affinity in data set [2], expressed as Ki, was 32 nM.

What is called IC50 is the point on the concentration scale where inhibition reaches its midpoint. In general, Ki refers to a dissociation constant, usually derived from enzyme kinetics or from competition with a known ligand. The term bioavailability denotes the share of a dose that reaches the circulation, judged against a reference dose that is usually intravenous. Usually half-life stands for the time in which the quantity being followed falls by half. Read a high half-life as slow decline.

The values are drawn from ChEMBL document CHEMBL2176999, “Update on the development of antagonists of chemoattractant receptor-homologous molecule expressed on Th2 cells (CRTH2). From lead optimization to clinical proof-of-concept in asthma and allergic rhinitis” (J Med Chem, 2012).
